A word on the melting point: it is the temperature, or range, at which the solid turns liquid.

Some results are limits rather than exact numbers.

For the compound `CC(C)(C)OC(=O)Nc1cc(NCCO)c(I)cc1[N+](=O)[O-]`, the melting point was in the range of 130 to 148 °C.
`CCn1nc2c(N)nc3cnccc3c2c1CC(C)(C)C` came in with a melting point above 260 °C.
Regarding `Cc1nc(-c2ccccc2)n(-c2ccc(S(C)(=O)=O)cc2)n1`, the melting point was in the range of 118 to 119 °C.
The same measure for `Cn1cccc1CN1CCCC1=O`: 44.5 to 47.5 °C; for `O=C(Nc1ccc(-n2nc(C(F)(F)F)cc2C(F)(F)F)cc1)c1nc(Cl)ccc1Cl`: 118 to 119 °C.
Take `CC(=O)Oc1cccc(C(=O)O)c1C`: the melting point was 147 to 148 °C.
Regarding `C[C@H](CSC(=O)c1ccccc1)C(=O)N1CSC[C@H]1C(=O)OCOC(=O)C(C)(C)C`, the melting point fell in the range of 69 to 69.5 °C.
In the case of `CCn1c(=O)n(CCCCC(C)=O)c(=O)c2cnn(C)c21`, the melting point stood at 112 °C.
`Cc1cc2c(c(C)c1NC(=O)CC(C)(C)C)C(c1ccccc1)CO2` (configuration not stated) registered a melting point of 158 to 159 °C.
As for `CCOC(=O)c1cnc2cc3c(cc2c1Cl)OCO3`, the melting point lay in the range of 109 to 110 °C.
Take `Clc1ccc(-c2cc(Cl)c3ccccc3n2)cc1Cl`: the melting point was in the range of 138 to 140 °C.
The compound `Fc1ccc(-n2c(OCCN3CCCC3)cc3ccc(Cl)cc32)cc1` had a melting point of 60 to 62 °C.
Then `O=C(c1ccc(Cl)cc1)c1cccc(CBr)c1`, with 123 to 125 °C.
`CCCCS(=O)(=O)N[C@@H](Cc1ccc(NC(=O)NC(=O)c2ccc(C#N)cc2)cc1)C(=O)OC(C)(C)C` yielded a melting point of 171 to 173 °C.
For the compound `CS(=O)(=O)CC(=O)N[C@H]1CC[C@H](CCN2CCN(c3nccc4c3OCC4)CC2)CC1`, the melting point amounted to 187 °C.
Turning to `Cn1c([N+](=O)[O-])cnc1C=Cc1nnc(-c2ccccc2)s1`, the melting point came out at 257 °C.
`NCCc1ccc(N2C(=O)N(c3ccc(Cl)cc3Cl)Cc3cnc(Nc4ccccc4)nc32)cc1`: the melting point lay in the range of 117 to 121 °C.
Regarding `CCNC(=O)N1C(=O)C2(CCCCC2)NC12CCCCC2`, the melting point lay in the range of 185 to 188 °C.
The compound `CC1(C)CC(NS(C)(=O)=O)c2cc(OCc3ccccc3)ccc2O1` (configuration not stated) had a melting point of 162 to 165 °C.
For `CC(C)=NOc1nc(C(F)(F)F)cc(=O)n1-c1cc(Oc2ccccc2[N+](=O)[O-])c(Cl)cc1F`, the melting point fell in the range of 156 to 159 °C.
Compound `Cc1cc(C2(C(F)(F)F)CC(C(F)(F)F)=NO2)ccc1NC(=O)c1cccc(I)c1C(=O)NC(C)C` (configuration not stated) had a melting point of 240 to 242 °C.
Regarding `Cc1ccn(-c2nc3ccccc3c(=O)[nH]2)n1`, the melting point lay in the range of 162 to 165 °C.
Turning to `Cc1cccc(C2SCCCS2)n1`, the melting point came out at 74 °C.
Turning to `CC(C)(C)c1cc(N2Cc3ccccc3C2=O)cc(C(C)(C)C)c1O`, the melting point lay within 205 to 207 °C.
Then `CC(=O)OC1C(=O)NC1c1ccco1` (configuration not stated), with 118 to 119 °C; and `C=CCOC(=O)/C(=N\O)c1csc(N)n1`, with 184 to 185 °C.
For `N=C1N(Cc2ccc(Cl)nc2)CCN1[N+](=O)[O-]`, the melting point is 81 °C.
On to `Cn1cnc(Cc2cccc(CO)c2O)c1`, for which the melting point is 139 to 144 °C.
`COc1ccc(N2CC(=O)N(c3ccc(OC)nc3-c3ccc(N(C)C)cc3)CC2=O)cc1` gave a melting point of 138 to 139 °C.
The same measure for `COc1cc(-c2ccc(NC(=O)OC(C)(C)C)cc2)c(C(C)=NOCc2ccc([N+](=O)[O-])cc2)cc1O`: 91 to 96.8 °C.
Then `CCCCCCCc1c(C(=O)OCC)[nH]c(C)c1C`, with 68 to 69 °C.
Then `COC(=O)/C=C/n1cnc2ccc(SC)cc2c1=O`, with 170 °C.
As to `CC(C)CCc1c(-c2ccc(S(N)(=O)=O)cc2)cnn(-c2ccc(F)c(Cl)c2)c1=O`, the melting point fell in the range of 154 to 156 °C.
As to `Cc1cc(C=O)ccc1C(=O)NCC(F)(F)F`, the melting point lay in the range of 99 to 104 °C.
The same measure for `CC(=O)Oc1c(C)c(C)c2c(c1C)CCC(C)(C(=O)N1CCN(c3cc(N4CCCC4)nc(N4CCCC4)n3)CC1)O2` (configuration not stated): 191 to 192 °C.
Compound `CN1CCN(c2ncc(-c3ccc(Cl)cc3Cl)c(N)n2)CC1` came in with a melting point of 137 °C.
For the compound `CCNC(=O)C=CC(C)=CC=C(C)c1ccc2c(c1)C(C)(C)CCC2(C)C`, the melting point is 150 to 159 °C.
`CCCC(COc1noc2ccc(Cl)cc12)NC=O` (configuration not stated) had a melting point of 107 to 108 °C.
Then `O=c1cc(C(F)(F)F)ccn1-c1c(Cl)cc(C(Cl)Cl)cc1Cl`, with 176 to 177 °C; and `O=C(NC1CC1c1ccc(-c2ncn(-c3ccc(OC(F)(F)F)cc3)n2)cc1)Oc1ccccc1` (configuration not stated), with 171 to 173 °C.
For the compound `Cc1ccc(CSc2nc3cc4c(cc3[nH]2)CCC4)nc1`, the melting point is 157 to 158 °C.
Take `CCC1(CC)c2cc(-c3nc4ccccc4s3)ccc2-c2ccc(N(c3ccc(O)cc3)c3ccc(O)cc3)cc21`: the melting point lay within 294 to 297 °C.
Then `CCCCCc1n[nH]c(CCCCC)n1`, with 66 to 68 °C; and `CON=C1CCC(C)(C)c2cc(C)c(-c3cc(C=C4SC(=O)NC4=O)ccc3Cl)cc21`, with 252 to 254 °C.
`COC(=O)CN(CC(=O)OC)c1cc(OCCCCCCCCCCCCOc2ccccc2)cc(OCCCOc2ccc(S(C)=O)cc2)c1` (configuration not stated) displayed a melting point of 47 to 49 °C.
In turn, `Cn1c(-c2ccc(OC3CCN(C4CCCC4)CC3)cc2)nc2ncccc2c1=O` had a melting point of 175 to 177 °C.
`COc1ccc2c(c1)CCC1=C2CCC2(C)C(O)CCC12` (configuration not stated) yielded a melting point of 110 to 112 °C.
The same measure for `CC(C)(C)c1csc(NC(=O)c2ccn3c(=O)c(/C=C/C(=O)O)c(N4CCC(OC(=O)NCCO)CC4)nc3c2)n1`: 231 to 234 °C; for `Cc1cccc(N2CCN(CCCCCC(=O)N3Cc4ccccc4C3)CC2)c1C#N`: 126 °C; for `COC(=O)c1cn(CC(F)(F)F)c2c(C)cc(F)cc2c1=O`: 168 to 171 °C.
Then `O=C1NN(c2ccccc2)CC1CN1CCOCC1` (configuration not stated), with 143 to 144 °C; and `CCCCCCCCOc1cc(-c2cccc(Cl)c2)c(OCC(=O)O)c(-c2cccc(Cl)c2)c1`, with 113 to 116 °C; and `C=CCc1c(-c2ccc(S(C)(=O)=O)cc2)cnn(CC(F)(F)F)c1=O`, with 192 to 195 °C.
Consider `O=C(O)CCCN(C(=O)c1ccc(Cl)cc1Cl)c1cccc2ccccc12`, for which the melting point is 134 to 136 °C.
The compound `C1=C(c2ccc3ccccc3c2)CCN(Cc2n[nH]c3ccccc23)C1` came in with a melting point of 225 to 227 °C.
Then `COc1cc2c(cc1OC)CN(c1nc(N3CCc4cc(OC)c(OC)cc4C3)nc(N3CCc4cc(OC)c(OC)cc4C3)n1)CC2`, with 166 to 169 °C; and `O=C(NOC1CCCCO1)c1ccc(-c2ccc3ncnc(Nc4ccc(OCc5cccc(F)c5)c(Cl)c4)c3c2)s1` (configuration not stated), with 250 °C; and `COc1cccc(-c2ccc3ccc(N)nc3n2)c1`, with 270 to 275 °C.
In turn, `CCOc1ccn2nc(S(=O)(=O)Cl)nc2n1` gave a melting point of 91 to 96 °C.
The same measure for `O=C1Nc2ccccc2SC1CCN1C=CN(c2ccc(F)cc2)C=C1` (configuration not stated): 158 to 159 °C; for `Nc1ncc(-c2ccccc2)nc1Br`: 148 to 152 °C.
In the case of `N#Cc1cc([N+](=O)[O-])[nH]c1-c1ccc(Cl)cc1`, the melting point is 201 to 206 °C.

The values above are taken from a melting point compilation (Tetko et al.; mined from patent text by program, amines drawn as free bases though some values may be those of a salt).
